Values of other authors, collected in PubChem BioAssay AID1259409 (Chemical Carcinogenesis Research Information System (CCRIS), 2018).

Tested on: rodent chemically induced tumor inhibition, incidence and multiplicity
Assay: CCRIS tumor inhibitor studies
Text: The CCRIS database contains chemical records with carcinogenicity, mutagenicity, tumor promotion, and tumor inhibition test results. It was developed by the National Cancer Institute (NCI). Data are derived from studies cited in primary journals, current awareness tools, NCI reports, and other sources. Test results have been reviewed by experts in carcinogenesis and mutagenesis.
CCRIS provides historical information from the years 1985 - 2011. It is no longer updated.
This is an archive assay for CCRIS tumor inhibitor studies.

SMILES | tumour outcome (control, treated, inhibition, significance) (Carcinogen: 7,12-DIMETHYLBENZ[A]ANTHRACENE, 57-97-6, Dose [Inhibitor]: 0, 200 UG IN 0.2 ML ACETONE 3/WK 1 HR BEFORE PROMOTER ON 2 D AND ALONE ON 1 D BEGINNING 18 D POST CARCINOGEN AND CONTINU, Route [Inhibitor]: DERMAL, Species: MOUSE, Strain/Sex: CD-1/FEMALE, Target Tissue: Type of Lesion: SKIN: PAPILLOMA, Dose [Carcinogen]: 200 NMOL IN 0.2 ML ACETONE ONCE AND MICE KEPT IN DARKENED ROOM FOR 48 HR POST INITIATION, Promoter: 12-O-TETRADECANOYLPHORBOL-13-ACETATE, 16561-29-8) | tumour outcome (control, treated, inhibition, significance) (Carcinogen: AZOXYMETHANE, 25843-45-2, Dose [Inhibitor]: 0, 200 PPM IN DIET BEGINNING PRIOR TO CARCINOGEN DOSE AND CONTINUING FOR DURATION OF STUDY (STUDY DURATION: 54 WK), Route [Inhibitor]: ORAL, Species: RAT, Strain/Sex: F344/MALE, Target Tissue: Type of Lesion: COLON: ADENOCARCINOMA, Dose [Carcinogen]: 15 MG/KG 1/WK FOR 2 WK, Promoter: NONE USED) | tumour outcome (control, treated, inhibition, significance) (Carcinogen: AZOXYMETHANE, 25843-45-2, Dose [Inhibitor]: 0, 200 PPM IN DIET BEGINNING PRIOR TO CARCINOGEN DOSE AND CONTINUING FOR DURATION OF STUDY (STUDY DURATION: 54 WK), Route [Inhibitor]: ORAL, Species: RAT, Strain/Sex: F344/MALE, Target Tissue: Type of Lesion: COLON: ADENOMA, Dose [Carcinogen]: 15 MG/KG 1/WK FOR 2 WK, Promoter: NONE USED) | tumour outcome (control, treated, inhibition, significance) (Carcinogen: AZOXYMETHANE, 25843-45-2, Dose [Inhibitor]: 0, 200 PPM IN DIET BEGINNING PRIOR TO CARCINOGEN DOSE AND CONTINUING FOR DURATION OF STUDY (STUDY DURATION: 54 WK), Route [Inhibitor]: ORAL, Species: RAT, Strain/Sex: F344/MALE, Target Tissue: Type of Lesion: SMALL INTESTINE: ADENOCARCINOMA, Dose [Carcinogen]: 15 MG/KG 1/WK FOR 2 WK, Promoter: NONE USED) | tumour outcome (control, treated, inhibition, significance) (Carcinogen: AZOXYMETHANE, 25843-45-2, Dose [Inhibitor]: 0, 200 PPM IN DIET BEGINNING PRIOR TO CARCINOGEN DOSE AND CONTINUING FOR STUDY DURATION (STUDY DURATION: 54 WK), Route [Inhibitor]: ORAL, Species: RAT, Strain/Sex: F344/MALE, Target Tissue: Type of Lesion: SMALL INTESTINE: ADENOMA, Dose [Carcinogen]: 15 MG/KG 1/WK FOR 2 WK, Promoter: NONE USED) | tumour outcome (control, treated, inhibition, significance) (Carcinogen: AZOXYMETHANE, 25843-45-2, Dose [Inhibitor]: 0, 400 PPM IN DIET BEGINNING PRIOR TO CARCINOGEN DOSE AND CONTINUING FOR DURATION OF STUDY (STUDY DURATION: 54 WK), Route [Inhibitor]: ORAL, Species: RAT, Strain/Sex: F344/MALE, Target Tissue: Type of Lesion: COLON: ADENOCARCINOMA, Dose [Carcinogen]: 15 MG/KG 1/WK FOR 2 WK, Promoter: NONE USED) | tumour outcome (control, treated, inhibition, significance) (Carcinogen: AZOXYMETHANE, 25843-45-2, Dose [Inhibitor]: 0, 400 PPM IN DIET BEGINNING PRIOR TO CARCINOGEN DOSE AND CONTINUING FOR DURATION OF STUDY (STUDY DURATION: 54 WK), Route [Inhibitor]: ORAL, Species: RAT, Strain/Sex: F344/MALE, Target Tissue: Type of Lesion: COLON: ADENOMA, Dose [Carcinogen]: 15 MG/KG 1/WK FOR 2 WK, Promoter: NONE USED) | tumour outcome (control, treated, inhibition, significance) (Carcinogen: AZOXYMETHANE, 25843-45-2, Dose [Inhibitor]: 0, 400 PPM IN DIET BEGINNING PRIOR TO CARCINOGEN DOSE AND CONTINUING FOR DURATION OF STUDY (STUDY DURATION: 54 WK), Route [Inhibitor]: ORAL, Species: RAT, Strain/Sex: F344/MALE, Target Tissue: Type of Lesion: SMALL INTESTINE: ADENOCARCINOMA, Dose [Carcinogen]: 15 MG/KG 1/WK FOR 2 WK, Promoter: NONE USED) | tumour outcome (control, treated, inhibition, significance) (Carcinogen: AZOXYMETHANE, 25843-45-2, Dose [Inhibitor]: 0, 400 PPM IN DIET BEGINNING PRIOR TO CARCINOGEN DOSE AND CONTINUING FOR DURATION OF STUDY (STUDY DURATION: 54 WK), Route [Inhibitor]: ORAL, Species: RAT, Strain/Sex: F344/MALE, Target Tissue: Type of Lesion: SMALL INTESTINE: ADENOMA, Dose [Carcinogen]: 15 MG/KG 1/WK FOR 2 WK, Promoter: NONE USED) | tumour outcome (control, treated, inhibition, significance) (Carcinogen: N-METHYL-N-NITROSOUREA, 684-93-5, Dose [Inhibitor]: 0, 0.1% IN DIET FOR DURATION OF STUDY BEGINNING 1 WK PRIOR TO CARCINOGEN DOSE (STUDY DURATION: 187 D), Route [Inhibitor]: ORAL, Species: RAT, Strain/Sex: SPRAGUE-DAWLEY/FEMALE, Target Tissue: Type of Lesion: MAMMARY GLAND: CARCINOMA, Dose [Carcinogen]: 50 MG/KG ONCE AT 50 D OF AGE, Promoter: NONE USED) | tumour outcome (control, treated, inhibition, significance) (Carcinogen: N-METHYL-N-NITROSOUREA, 684-93-5, Dose [Inhibitor]: 0, 0.2% IN DIET FOR 2 WK BEGINNING 1 WK PRIOR TO CARCINOGEN DOSE (STUDY DURATION: 187 D), Route [Inhibitor]: ORAL, Species: RAT, Strain/Sex: SPRAGUE-DAWLEY/FEMALE, Target Tissue: Type of Lesion: MAMMARY GLAND: CARCINOMA, Dose [Carcinogen]: 50 MG/KG ONCE AT 50 D OF AGE, Promoter: NONE USED) | tumour outcome (control, treated, inhibition, significance) (Carcinogen: N-METHYL-N-NITROSOUREA, 684-93-5, Dose [Inhibitor]: 0, 0.2% IN DIET FOR DURATION OF STUDY BEGINNING 1 WK POST CARCINOGEN DOSE (STUDY DURATION: 180 D), Route [Inhibitor]: ORAL, Species: RAT, Strain/Sex: SPRAGUE-DAWLEY/FEMALE, Target Tissue: Type of Lesion: MAMMARY GLAND: CARCINOMA, Dose [Carcinogen]: 50 MG/KG ONCE AT 50 D OF AGE, Promoter: NONE USED) | tumour outcome (control, treated, inhibition, significance) (Carcinogen: N-METHYL-N-NITROSOUREA, 684-93-5, Dose [Inhibitor]: 0, 0.2% IN DIET FOR DURATION OF STUDY BEGINNING 1 WK PRIOR TO CARCINOGEN DOSE (STUDY DURATION: 187 D), Route [Inhibitor]: ORAL, Species: RAT, Strain/Sex: SPRAGUE-DAWLEY/FEMALE, Target Tissue: Type of Lesion: MAMMARY GLAND: CARCINOMA, Dose [Carcinogen]: 50 MG/KG ONCE AT 50 D OF AGE, Promoter: NONE USED) | tumour outcome (control, treated, inhibition, significance) (Carcinogen: 7,12-DIMETHYLBENZ(A)ANTHRACENE, 57-97-6, Dose [Inhibitor]: 0.068 MMOL/G IN DIET FOR 8 D BEGINNING 7 D PRIOR TO CARCINOGEN DOSE (STUDY DURATION: 23 WK), Route [Inhibitor]: ORAL, Species: RAT, Strain/Sex: SPRAGUE-DAWLEY/FEMALE, Target Tissue: Type of Lesion: MAMMARY GLAND: TUMOR, Dose [Carcinogen]: 12 MG IN 1.0 ML OLIVE OIL ONCE ON D 7 OF EXPERIMENT, Promoter: NONE USED) | tumour outcome (control, treated, inhibition, significance) (Carcinogen: BENZO[A]PYRENE, 50-32-8, Dose [Inhibitor]: 0.034 MMOL/G IN DIET BEGINNING 1 WK PRIOR TO FIRST CARCINOGEN DOSE AND CONTINUING FOR 3 D POST LAST CARCINOGEN DOSE FOR, Route [Inhibitor]: ORAL, Species: MOUSE, Strain/Sex: ICR/FEMALE, Target Tissue: Type of Lesion: FORESTOMACH: TUMOR, Dose [Carcinogen]: 1 MG IN 0.2 ML CORN OIL 2/WK FOR 4 WK, Promoter: NONE USED)
C[C@]12CCCCC1=CC[C@@H]1[C@@H]2CC[C@]2(C)C(=O)[C@H](F)C[C@@H]12 | 92%, 70%, 24%, not calculated | 72%, 50%, 31%, p<0.05 | 14%, 8%, 43%, not calculated | 50%, 28%, 44%, not calculated | 3%, 0%, 100%, not calculated | 72%, 61%, 15%, not calculated | 14%, 6%, 57%, not calculated | 50%, 17%, 66%, p<0.01 | 3%, 0%, 100%, not calculated | 100%, 100%, 0%, not significant | 100%, 100%, 0%, not significant | 100%, 95%, 5%, not significant | 100%, 100%, 0%, not significant |  | 
COc1cc(OC)c2ccc(=O)oc2c1 |  |  |  |  |  |  |  |  |  |  |  |  |  | 85%, 38%, 55%, p<0.05 | 100%, 94%, 6%, not significant
